Data set [1] can be described thus: Stability in rat liver microsomes assessed as parent compound remaining after 2 hrs by LC-MS/MS analysis. Type of data set: ADME, microsome. The following applies: read-out: Stability. (Microsomes from liver hold many membrane-bound enzymes, among them those of drug oxidation.)
Data set [2] deals with T1, Nuclear receptor ROR-gamma (Homo sapiens, UniProt P51449).
T1 sequence (P51449 whole entry): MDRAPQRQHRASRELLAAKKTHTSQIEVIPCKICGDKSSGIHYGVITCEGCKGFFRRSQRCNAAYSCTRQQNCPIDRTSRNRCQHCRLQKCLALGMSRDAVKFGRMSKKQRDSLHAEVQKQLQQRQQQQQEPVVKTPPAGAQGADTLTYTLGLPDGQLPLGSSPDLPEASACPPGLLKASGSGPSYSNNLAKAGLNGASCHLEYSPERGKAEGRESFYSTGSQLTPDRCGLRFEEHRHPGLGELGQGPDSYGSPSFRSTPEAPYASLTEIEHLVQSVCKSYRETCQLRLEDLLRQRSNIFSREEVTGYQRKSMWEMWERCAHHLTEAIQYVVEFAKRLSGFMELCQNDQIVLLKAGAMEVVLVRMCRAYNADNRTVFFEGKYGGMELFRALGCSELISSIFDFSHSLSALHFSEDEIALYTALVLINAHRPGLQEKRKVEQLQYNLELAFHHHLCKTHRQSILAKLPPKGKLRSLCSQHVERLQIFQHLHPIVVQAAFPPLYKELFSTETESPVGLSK
Description: (§1) Transrepression of recombinant human GAL4-DBD fused RORgammat LBD expressed in HEK293 cells after 20 hrs by luciferase reporter gene assay. Type of data set: cell-based.

The target in data set [3] is T2, Nuclear receptor ROR-gamma (Homo sapiens) (UniProt P51449).
T2 sequence (whole entry): T1 sequence (P51449 whole entry)
The data set is described as §1. Type of data set: cell-based.

The nature of data set [4]: Solubility of the compound in NaCl/HCl buffer at pH 1.2 by shake-flask method. Type of data set: physicochemical.
Data set [5] in a line: Solubility of the compound in KH2PO4/Na2HPO4 buffer at pH 6.8 by shake-flask method. Type of data set: physicochemical.
Data set [6] in a line: Stability in human liver microsomes assessed as parent compound remaining after 2 hrs by LC-MS/MS analysis. Type of data set: ADME, microsome. The following applies: read-out: Stability.
Data set [7] concerns the target T3, Nuclear receptor ROR-gamma (Mus musculus, UniProt P51450).
T3 sequence (P51450 whole entry): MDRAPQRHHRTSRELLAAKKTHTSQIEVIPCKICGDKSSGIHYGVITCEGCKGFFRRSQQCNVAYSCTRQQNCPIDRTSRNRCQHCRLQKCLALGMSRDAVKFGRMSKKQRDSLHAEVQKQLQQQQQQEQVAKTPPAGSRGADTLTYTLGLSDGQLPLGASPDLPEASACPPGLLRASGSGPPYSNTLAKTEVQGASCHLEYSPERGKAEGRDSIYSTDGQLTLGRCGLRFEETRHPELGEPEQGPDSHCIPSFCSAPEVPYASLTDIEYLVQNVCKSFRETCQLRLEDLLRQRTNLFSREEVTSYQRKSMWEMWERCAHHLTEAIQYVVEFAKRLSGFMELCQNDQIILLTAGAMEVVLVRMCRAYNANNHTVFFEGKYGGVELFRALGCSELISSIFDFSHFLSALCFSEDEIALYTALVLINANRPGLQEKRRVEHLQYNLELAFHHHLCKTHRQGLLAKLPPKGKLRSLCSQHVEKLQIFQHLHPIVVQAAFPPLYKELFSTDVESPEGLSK
Description: (§2) Transrepression of recombinant mouse GAL4-DBD fused RORgammat LBD expressed in HEK293 cells after 20 hrs by luciferase reporter gene assay. Type of data set: cell-based. In general terms: In a reporter assay the amount or activity of a reporter protein is the signal.

In data set [8] the target is T4, Nuclear receptor ROR-gamma (Mus musculus) (UniProt P51450).
T4 sequence (whole entry): T3 sequence (P51450 whole entry)
The description is as §2. Type of data set: cell-based.

Data set [9] deals with T1, Nuclear receptor ROR-gamma. As to the kind of experiment: Displacement of [3H]-Digoxin from recombinant human GST-fused RORgammat LBD after 1 to 4 hrs by scintillation counting method.
Data set [10] concerns the target T3, Nuclear receptor ROR-gamma. Description: Transrepression of RORgammat in anti-CD3/CD28 stimulated C57BL/6 mouse CD4-positive T cells assessed as suppression of T cell differentiation to Th17 cells by measuring reduction in IL-17A level after 4 days by ELISA.

From ChEMBL document CHEMBL4261613, “Discovery of a potent orally bioavailable retinoic acid receptor-related orphan receptor-gamma-t (RORγt) inhibitor, S18-000003” (Bioorg Med Chem Lett, 2018) come the findings set out here.

Converted amounts (≈) assume the structure as drawn.

Broadly, the IC50 is the point on the concentration scale where inhibition reaches its midpoint. The thermodynamic solubility is the concentration in solution at equilibrium with solid. `CCS(=O)(=O)c1ccc(CC(=O)Nc2ccc(C(C)(C)C(=O)Nc3ccncc3)cc2)cc1`: the remaining at 2 h in [1] worked out at 25%; in data set [6], 4.3%. The IC50 is 1800 nM in data set [2] and above 10000 nM in data set [7]. Besides, the Efficacy in [3] amounted to 87%; in [8] it was 47%. Further, the thermodynamic solubility in [4] and in [5] was above 50 µM each time.
`CCS(=O)(=O)c1ccc(CC(=O)Nc2ccc(C(C)(C)C(=O)N3CC4(CCC4)C3)cc2)cc1`: the IC50 was determined as 33 nM in [9], 470 nM in data set [2] and 10000 nM in data set [7]. For the same compound, the Efficacy in data set [3] is 89%; in data set [8], 55%.
On to `CCS(=O)(=O)c1ccc(CC(=O)Nc2ccc(C(C)(C)C(=O)Nc3ccc(F)cc3F)cc2)cc1`, for which the remaining at 2 h in [1] amounted to 73%; in data set [6], 97%. Besides, the IC50 in data set [10] was 1300 nM; in data set [2], 95 nM; in data set [7], 1800 nM. Also, the figures for the Efficacy in data set [3] and in data set [8] were 91% and 73%, respectively.
`CCS(=O)(=O)c1ccc(CC(=O)Nc2ccc(C(C)(C)C(=O)Nc3cccc(C(F)(F)F)n3)cc2)cc1`: the figures for the remaining at 2 h in [1] and in [6] were 71% and 74%, respectively. For the same compound, the IC50 in data set [2] turned out to be 500 nM; in data set [7] it was 5400 nM. The Efficacy was found to be 90% in [3] and 66% in data set [8]. The solubility (thermodynamic) in data set [4] came to 1.1 µM (≈ 0.587 µg/mL); in [5], 0.6 µM (≈ 0.32 µg/mL).
With `CCS(=O)(=O)c1ccc(CC(=O)Nc2ccc(C(C)(C)C(=O)Nc3cc(C(F)(F)F)ccn3)cc2)cc1`, the results for the remaining at 2 h in data set [1] and in data set [6] were 23% and 36%, respectively. Besides, the IC50 in data set [2] was found to be 25 nM; in [7], 78 nM. The Efficacy in data set [3] and in data set [8] was 94% throughout. In addition, the solubility (thermodynamic) in data set [4] was determined as 26 µM (≈ 13.9 µg/mL); in data set [5], 0.5 µM (≈ 0.267 µg/mL).
With `CCS(=O)(=O)c1ccc(CC(=O)Nc2ccc(C(C)(C)C(=O)N(C)c3ccccc3)cc2)cc1`, the results for the IC50 in data set [9], in data set [2] and in [7] were below 30 nM, 14 nM and 330 nM, respectively. Also, the Efficacy in data set [3] worked out at 93%; in [8], 76%.
On the same counts, the results for `CCS(=O)(=O)c1ccc(CC(=O)Nc2ccc(C(C)(C)C(=O)N3CCC3)cc2)cc1` are below 30 nM, 180 nM, above 10000 nM, 90% and 52%.
For the compound `CCS(=O)(=O)c1ccc(CC(=O)Nc2ccc(C(C)(C)C(=O)Nc3ccccn3)cc2)cc1`, the remaining at 2 h in [1] came out at 36%; in data set [6], 60%. Also, the IC50 is 40 nM in [2] and 1300 nM in data set [7]. The Efficacy in data set [3] was 93%; in [8], 73%. Moreover, the thermodynamic solubility in data set [4] and in [5] was above 50 µM in each case.
For the compound `CCS(=O)(=O)c1ccc(CC(=O)Nc2ccc(C(C)(C)C(=O)Nc3cc(C#N)ccn3)cc2)cc1`, the remaining at 2 h was found to be 72% in [1] and 92% in [6]. Further, the concentration for half-maximal inhibition (IC50) in data set [2] was determined as 40 nM; in data set [7] it was 290 nM. Further, the Efficacy in data set [3] was 97%; in data set [8], 91%. In addition, the solubility (thermodynamic) was 47 µM (≈ 23.1 µg/mL) in data set [4] and 25 µM (≈ 12.3 µg/mL) in data set [5].
On to `CCS(=O)(=O)c1ccc(CC(=O)Nc2ccc(C(C)(C)C(=O)Nc3ccccc3C)cc2)cc1`, for which the remaining at 2 h turned out to be 6% in data set [1] and 24% in data set [6]. Also, the figures for the IC50 in [2] and in [7] were 140 nM and 6800 nM, respectively. Further, the Efficacy is 93% in data set [3] and 57% in data set [8].
As to `CCS(=O)(=O)c1ccc(CC(=O)Nc2ccc(C(C)(C)C(=O)N3CCCCC3)cc2)cc1`, the IC50 in [9] is 36 nM; in [2], 430 nM; in [7] it was above 10000 nM. Besides, the results for the Efficacy in data set [3] and in [8] were 91% and 50%, respectively.
On to `CCS(=O)(=O)c1ccc(CC(=O)Nc2ccc(C(C)(C)C(=O)N3CCc4ccccc43)cc2)cc1`, for which the values for the IC50 in data set [9], in data set [2] and in data set [7] were below 30 nM, 10 nM and 110 nM, respectively. Further, the Efficacy in data set [3] was 93%; in data set [8] it was 87%.
The like results for `CCS(=O)(=O)c1ccc(CC(=O)Nc2ccc(C(C)(C)C(=O)N(C)C)cc2)cc1` were, in that order, 30 nM, 370 nM, above 10000 nM, 89% and 51%.
Consider `CCS(=O)(=O)c1ccc(CC(=O)Nc2ccc(C(C)(C)C(=O)Nc3ccccc3F)cc2)cc1`, for which the remaining at 2 h came to 19% in [1] and 67% in [6]. The IC50 in [10] worked out at 100 nM; in data set [2], 4.4 nM; in data set [7] it was 100 nM. The Efficacy in data set [3] is 93%; in [8], 76%.
Consider `CCOC(=O)C(C)(C)c1ccc(NC(=O)Cc2ccc(S(=O)(=O)CC)cc2)cc1`, for which the IC50 in data set [9] was determined as 64 nM; in data set [2], 400 nM; in data set [7] it was 3100 nM. For the same compound, the Efficacy in [3] is 93%; in data set [8], 77%.
With `CCS(=O)(=O)c1ccc(CC(=O)Nc2ccc(C(C)(C)C(=O)Nc3ccccc3)cc2)cc1`, the 50% inhibitory concentration (IC50) in data set [9] is below 30 nM; in [10], 480 nM; in [2], 14 nM; in data set [7] it was 470 nM. Also, the remaining at 2 h came to 30% in data set [1] and 8.5% in data set [6]. Further, the Efficacy amounted to 93% in data set [3] and 69% in data set [8]. Further, the thermodynamic solubility in data set [4] came out at 46.9 µM (≈ 21.8 µg/mL); in data set [5], 26.6 µM (≈ 12.4 µg/mL).
For the compound `CCS(=O)(=O)c1ccc(CC(=O)Nc2ccc(C(C)(C)C(=O)Nc3ncccc3F)cc2)cc1`, the remaining at 2 h in [1] was 80%; in [6], 93%. For the same compound, the values for the half-maximal inhibitory concentration (IC50) in data set [2] and in [7] were 310 nM and above 10000 nM, respectively. Moreover, the values for the Efficacy in data set [3] and in data set [8] were 92% and 37%, respectively. Further, the thermodynamic solubility in data set [4] and in [5] was above 50 µM each time.
`CCS(=O)(=O)c1ccc(CC(=O)Nc2ccc(C(C)(C)C(=O)Nc3cccc(F)c3)cc2)cc1`: the remaining at 2 h in data set [1] came to 24%; in data set [6], 2.7%. Besides, the IC50 in data set [10] stood at 290 nM; in data set [2], 9.8 nM; in data set [7], 260 nM. Also, the Efficacy in data set [3] amounted to 94%; in data set [8] it was 84%.
For the compound `CCS(=O)(=O)c1ccc(CC(=O)Nc2ccc(C(C)(C)C(=O)Nc3cccnc3)cc2)cc1`, the IC50 worked out at 150 nM in data set [2] and 4500 nM in [7]. Also, the Efficacy was determined as 93% in data set [3] and 63% in [8].
Regarding `CCS(=O)(=O)c1ccc(CC(=O)Nc2ccc(C(C)(C)C(=O)N3Cc4ccccc4C3)cc2)cc1`, the IC50 in [9] was below 30 nM; in data set [2] it was 260 nM; in data set [7] it was 1900 nM. The Efficacy in data set [3] came out at 92%; in data set [8] it was 84%.
Take `CCS(=O)(=O)c1ccc(CC(=O)Nc2ccc(C(C)(C)C(=O)Nc3cc(F)ccn3)cc2)cc1`: the remaining at 2 h stood at 47% in [1] and 69% in data set [6]. Besides, the IC50 in data set [2] came out at 31 nM; in data set [7] it was 320 nM. Also, the Efficacy in data set [3] came to 94%; in [8], 86%. The solubility (thermodynamic) in data set [4] and in data set [5] was above 50 µM each time.
Regarding `CCS(=O)(=O)c1ccc(CC(=O)Nc2ccc(C(C)(C)C(=O)Nc3cc(Cl)ccn3)cc2)cc1`, the remaining at 2 h in data set [1] was 8.1%; in data set [6], 40%. Moreover, the IC50 in data set [2] was found to be 8.2 nM; in [7], 100 nM. In addition, the Efficacy in [3] amounted to 95%; in data set [8] it was 86%. The figures for the thermodynamic solubility in data set [4] and in data set [5] were above 50 µM and 4.7 µM (≈ 2.35 µg/mL), respectively.
